From patent US20240059740A1, “CYCLIC PEPTIDES AND USES THEREOF” (PRE[…] INC., priority 2020, published 2024)
Residues, ends and D or L forms follow the SMILES beside them.

How the values were obtained:
[1] = system: U87 cells; assay: MTT assay for cytotoxicity, U87; format: cell-based, human; conditions: 48 hours, % viability of control
Description: The MTT (3-[4.5-dimethylthiazol-2-yl]-2,5═diphenyl tetrazolium bromide) assay is based on a process undertaken by living cells, involving the conversion of MTT into formazan crystals. This assay is used routinely to measure the in vitro cytotoxic effects of drugs on cell lines or primary patient cells (Van Meerloo et al., 2011). The MTT assay measures mitochondrial activity, so in some instances where the peptide activates mitochondrial response, the results appear to increase the number of cells present i.e. >100% cell viability.
The aim of this experiment was to identify peptide concentrations that are active on living cells and cell viability was assessed.
The glioblastoma multiforme (GBM) cell lines used were U87 and U251 cells and patient derived cells grown as oncospheres (081024 cells). Human adherent GBM cell lines U87 and U251 were cultured in RPMI medium (Life Technologies Melbourne Australia) supplemented with 5% v/v FBS, 100 U/mL penicillin and 100 μg/mL streptomycin. 081024 cells were cultrured in NeuroCult™ NS-A Proliferation medium with 0.2% (v/v) heparin, 20 ng/mL EGF and 10 ng/mL FGF.
8×10^3 U87 and 7×10^3 U251 cells per well were seeded in 96 well plates in 200 μL serum-containing RPMI medium and incubated at 37° C. with 5% CO2 for 24 hours. After one wash with serum-free medium, 100 μL serum-free medium with different concentration of peptide SEQ ID NO:1 was added to each well. After 48 hours incubation, 10 μL of 0.5 mg/mL MTT was added and incubated for 2 hours at 37° C. Formazan crystals were dissolved by 200 μL/well dimethyl sulfoxide (DMSO) and shaking for 15 minutes. The UV absorbance was read with an iMark™ microplate absorbance reader at 595 nm (Bio-Rad Laboratories). Background absorbance was subtracted and results expressed as the % viability of control (untreated cells).

[2] = system: MMP-2; assay: Gelatin zymography of conditioned media, MMP-2 production; format: cell-based, human; conditions: for metalloprotease production, MMP-2: compared to control containing no peptide
Description: To assess whether the peptide SEQ ID NO.1 impacted MMP-2, MMP-9 and uPA production Zymography was used.
Zymography is a technique for studying hydrolytic enzymes on the basis of substrate degradation. The in-gel zymography hydrolytic enzymes are separated by their molecular weights and detected by their ability to degrade a substrate. To detect the activity of MMP-2 and MMP-9 in various cell lines, conditioned media were collected in 3 independent experiments and analysed by gelatin zymography to quantify the level of gelatin digestion, which reflects MMP-2 and MMP-9 activity and production. Casein-Plasminogen zymography was conducted to determine the activity level of uPA in the conditioned medium from various cell lines. Active uPA converts plasminogen into plasmin which then digests casein, thus clear bands where digestion of casein have occurred indirectly represent uPA activity.
The effect of the peptides on matrix protease production was tested using in-gel zymography. If the substrate included in the gel is gelatin, the enzymes detected are gelatinases: MMP-2 and MMP-9 (the latter is often of low abundance). If the gel contains casein and plasminogen, the enzymes tested are urokinase plasminogen activators (uPA); uPA is a therapeutic target in GBM.
An equal amount of protein from each sample was mixed with 5 μL of Laemmli buffer (0.01% Bromophenol Blue (W/V), 5% SDS (W/V), 22% glycerol (V/V), 14% 0.5 M Tris pH 6.8 (V/V)) and loaded onto a 10% polyacrylamide gel co-polymerized with 1 mg/ml of gelatin, and electrophoresed at 120 V for 2 hours on ice. The gel was incubated in […] solution (Triton X-100 2.5% (V/V), 1 M Tris pH 7.5 5% (V/V), 0.5 M CaCl2 1% (W/V) at room temperature overnight on an orbital shaker. The gel was incubated in a second solution for 3 hours at 37° C. The gel was then stained with Coomassie blue solution (Coomassie blue 0.25%, methanol 45%, acetic acid 10%) and destained in methanol 25% (V/V), acetic acid 10% (V/V) destaining solution until clear bands against the dark background appeared around 72 kDa and 95 kDa, representing MMP-2 and MMP-9 activity, respectively. Clear bands around 50 kDa appeared against the dark background representing uPA activity. The gels were scanned, and uPA, MMP-2 and MMP-9 were quantified by densitometry using NIH Image J software.
SEQ ID NO.1 was compared to a control containing no peptide to evaluate whether the peptide can reduce the production of matrix proteinases. […] This could be confirmed using a MMP-9 quantification kit, and altered production by a transcriptional mechanism can be unveiled using qRT-PCR.

Q: For `CC(C)C[C@@H]1NC(=O)[C@H](C)NC(=O)[C@@H](NC(=O)[C@@H]2CCCN2C(=O)[C@@H](N)CC(C)C)CSSC(C)(C)CNC(=O)CC[C@@H](C(=O)N[C@@H](CCCNC(=N)N)C(N)=O)NC(=O)[C@H](CC(=O)O)NC(=O)[C@H](CC(N)=O)NC1=O` [SEQ ID NO: 1, Leu-Pro-c(SSA*-Ala-Leu-Asn-Asp-Glu)-Arg-NH2] (HELM PEPTIDE1{L.P.C.A.L.N.D.E.R.[am]}|CHEM1{[CC(C)(CN[*:2])S[*:1]]}$PEPTIDE1,CHEM1,3:R3-1:R1|PEPTIDE1,CHEM1,8:R3-1:R2$$$V2.0; N-terminus assumed), which Cell viability ([1]; 1 μM) is on record?
A: Its Cell viability is 96.34%.

Q: And the Cell viability ([1]; 5 μM)?
A: The Cell viability was 102.4%.

Q: What about the Cell viability ([1]; 10 μM) of the same compound?
A: The Cell viability was 100.1%.

Q: And the Cell viability ([1]; 50 μM)?
A: Its Cell viability is 98.71%.

Q: What about the Cell viability ([1]; 100 μM) of the same compound?
A: The Cell viability was 102.8%.

Q: What about the Cell viability ([1]; 500 μM) of the same compound?
A: Its Cell viability is 96.94%.

Q: What about the Cell viability ([1]; 1 mM) of the same compound?
A: Its Cell viability is 83.41%.

Q: And the “metalloprotease production, MMP-2” value ([2]; 081024 cells)?
A: The value was 106.4.

Q: And the “metalloprotease production, MMP-2” value ([2]; U87 cells)?
A: Its value is 102.1.

Q: And the “metalloprotease production, MMP-2” value ([2]; U251 cells)?
A: Its value is 110.2.

Q: What about the “production of MMP-2 (overall, in words)” value ([2]; overall, all cell lines) of the same compound?
A: Its value is “did not decrease”.
